Tests used:
apoB-100 = assay: Inhibition of apoB-100 secretion by primary human hepatocytes (35S-methionine labelling, SDS PAGE, Phosphorimager); format: cell-based; settings: 8 hours incubation, tested from 1 μM to 1.6 nM, secretion of radiolabeled apoB-100, untreated cells as controls
Protocol: The ability of the compounds of the invention to inhibit the production of apoB-100 by human hepatocytes in vitro is determined using primary human hepatocytes as a model system. The specificity of the compounds of the invention is established by comparing the effects on apoB-100, apoprotein A-1, and fibrinogen production. A specificity of at least 100 is preferred.
Primary human hepatocytes were seeded at 50 000 cells/well in 96 well plates. After an overnight adhesion phase, cells were incubated with compounds for 8 hours in RPMI medium containing 1% FCS, 4 μg/ml insulin, 100 nM dexamethasone and 50 μCi/ml ^35S-methionine. […] Production of radiolabeled apoB-100 and apoA-1 (used as a selectivity control) was quantified by analysis of supermatants using SDS AGE and exposure of gels onto Phosphorimager screens. Inhibition of apo-100 and apoA-1 secretion by compounds was calculated taking untreated cells as controls, and IC50 of each compound was determined on both apoproteins.

| Structure (SMILES) | IC50 (apoB-100; Homo sapiens, Hepatocyte, 8 h) [nM] | melting point [°C] | IC50 (apoB-100) [nM] |
| --- | --- | --- | --- |
| Cc1ccc(C(=O)Nc2ccc(N3CCN(Cc4cccc(C#N)c4)CC3)cc2)c(-c2ccc(C(C)C)cc2)c1 [Example 2, 4′-Isopropyl-5-methyl-biphenyl-2-carboxylic Acid [4-[4-(3-cyano-benzyl)-piperazin-1-yl]-phenyl]-amide] | 18 | 167 to 169 |  |
| COc1cccc(C(=O)Nc2ccc(N3CCN(Cc4cccc(C#N)c4)CC3)cc2)c1-c1ccc(C(C)C)cc1 [Example 3, 4′-Isopropyl-6-methoxy-biphenyl-2-carboxylic Acid [4-[4-(3-cyano-benzyl)-piperazin-1-yl]-phenyl]-amide] | 18 | 179 | 13 |
| Cc1cccc(C(=O)Nc2ccc(N3CCN(Cc4cccc(C#N)c4)CC3)cc2)c1-c1ccc(C(C)C)cc1 [Example 4] |  |  | 12 |
| Cc1cccc(C(=O)Nc2ccc(N3CCN(Cc4cccc(C#N)c4)CC3)cc2)c1-c1ccc(C(F)(F)F)cc1 [Example 5, 6-Methyl-4′-trifluoromethyl-biphenyl-2-carboxylic Acid [4-[4-(3-cyano-benzyl)-piperazin-1-yl]-phenyl]-amide] | 15 | 192 |  |
| Cc1ccc(C(=O)Nc2ccc(N3CCN(Cc4cccc(-c5nc(C)no5)c4)CC3)cc2)c(-c2ccc(C(C)C)cc2)c1 [Example 6] |  |  | 18 |
| O=C(Nc1ccc(N2CCN(Cc3ccc[nH]3)CC2)cc1)c1ccccc1-c1ccc(C(F)(F)F)cc1 [Example 62, 4′-Trifluormethyl-biphenyl-2-carboxylic Acid [4-(4-(1H-pyrrol-2-ylmethyl)-piperazin-1-yl)-phenyl)-amide] |  |  | 10 |
| Cc1ccc(C(=O)Nc2ccc(N3CCN(Cc4ccc[nH]4)CC3)cc2)c(-c2ccc(C(C)C)cc2)c1 [Example 63, 4′-Isopropyl-5-methyl-biphenyl-2-carboxylic Acid [4-(4-(1H-pyrrol-2-ylmethyl)-25 piperazin-1-yl)-phenyl]-amide] |  |  | 20 |
| Cc1ccc(C(=O)Nc2ccc(N3CCN(Cc4ccc[nH]4)CC3)cc2)c(-c2ccc(C(F)(F)F)cc2)c1 [Example 64, 5-Methyl-4′-trifluoromethyl-biphenyl-2-carboxylic Acid [4-(4-(1H-pyrrol-2-ylmethyl)-piperazin-1-yl)-phenyl]-amide] | 19 | 196 to 198 |  |
| O=C(Nc1ccc(N2CCN(Cc3ccco3)CC2)cc1)c1ccccc1-c1ccc(C(F)(F)F)cc1 [Example 67, 4′-Trifluoromethyl-biphenyl-2-carboxylic acid [4-(4-furan-2-ylmethyl-piperazin-1-yl)-phenyl]-amide] |  | 173 to 175 |  |
| COc1cccc(C(=O)Nc2ccc(N3CCN(Cc4ccc[nH]4)CC3)cc2)c1-c1ccc(C(C)C)cc1 [Example 68, 4′-Isopropyl-6-methoxy-biphenyl-2-carboxylic acid [4-(4-(1H-pyrrol-2-ylmethyl)-piperazin-1-yl)-phenyl]-amide] |  | 195 to 197 |  |
| O=C(Nc1ccc(N2CCN(Cc3cccs3)CC2)cc1)c1ccccc1-c1ccc(C(F)(F)F)cc1 [Example 70, 4′-Trifluoromethyl-biphenyl-2-carboxylic acid [4-(4-thiophen-2-ylmethyl-piperazin-1-yl)-phenyl]-amide] |  | 181 to 183 |  |
| O=C(Nc1ccc(N2CCN(Cc3cc[nH]n3)CC2)cc1)c1ccccc1-c1ccc(C(F)(F)F)cc1 [Example 71, 4′-Trifluoromethyl-biphenyl-2-carboxylic acid {4-[4-(1H-pyrazole-3-ylmethyl)-piperazine-1-yl]-phenyl}-amide] |  | 194 to 196 |  |
| O=C(Nc1ccc(N2CCN(Cc3c[nH]c4ccc(F)cc34)CC2)cc1)c1ccccc1-c1ccc(C(F)(F)F)cc1 [Example 73, 4′-Trifluoromethyl-biphenyl-2-carboxylic acid {4-[4-(5-fluoro-1H-indol-3-ylmethyl)-piperazin-1-yl]-phenyl}-amide] |  | 168 to 170 |  |
| COc1cccc(C(=O)Nc2ccc(N3CCN(Cc4cccc(-c5nc(C)no5)c4)CC3)cc2)c1-c1ccc(C(C)C)cc1 [Example 74, 4′-Isopropyl-6-methoxy-biphenyl-2-carboxylic acid (4-(4-(3-(3-methyl-[1,2,4]oxadiazol-5-yl)-benzyl)-piperazine-1-yl)-phenyl)-amide] |  | 180 to 182 |  |
| O=C(Nc1ccc(N2CCN(Cc3cccc(-c4noc(C(F)(F)F)n4)c3)CC2)cc1)c1ccccc1-c1ccc(C(F)(F)F)cc1 [Example 75, 4′-Trifluoromethyl-biphenyl-2-carboxylic acid (4-{4-[3-(5-trifluoromethyl-[1,2,4]oxadiazol-3-yl)-benzyl]-piperazin-1-yl}-phenyl)-amide] |  | 188 to 190 |  |
| O=C(CN1CCN(c2ccc(NC(=O)c3ccccc3-c3ccc(C(F)(F)F)cc3)cc2)CC1)NCc1cccc(-c2ccccc2)c1 [Example 77, 4′-Trifluoromethyl-biphenyl-2-carboxylic Acid [4-(4{[(biphenyl-3-ylmethyl)-carbamoyl]-methyl}piperazin-1-yl)-phenyl]-amide] |  | 165 to 167 |  |
| O=C(NCC(F)(F)F)c1cccc(CN2CCN(c3ccc(NC(=O)c4ccccc4-c4ccc(C(F)(F)F)cc4)cc3)CC2)c1 [Example 79, 4′-Trifluoromethyl-biphenyl-2-carboxylic Acid (4-{4-[3-(2,2,2-trifluoro-ethylcarbamoyl)-benzyl]-piperazin-1-yl}-phenyl)-amide] |  | 205 to 207 |  |
| N#Cc1cccc(C(=O)N2CCN(c3ccc(NC(=O)c4ccccc4-c4ccc(C(F)(F)F)cc4)cc3)CC2)c1 [Example 80, 4′-Trifluoromethyl-biphenyl-2-carboxylic Acid [4-[4-(3-cyano-benzoyl)-piperazin-1-yl]-phenyl]-amide] |  | 178.5 to 180 |  |
| CC(=O)N1CCN(c2ccc(NC(=O)c3ccccc3-c3ccc(C(F)(F)F)cc3)cc2)CC1 [Example 81, 4′-Trifluoromethyl-biphenyl-2-carboxylic Acid [4-(4-acetyl-piperazin-1-yl)-phenyl]-amide] |  | 175 to 176.5 |  |
| N#Cc1cccc(S(=O)(=O)N2CCN(c3ccc(NC(=O)c4ccccc4-c4ccc(C(F)(F)F)cc4)cc3)CC2)c1 [Example 82, 4′-Trifluoromethyl-biphenyl-2-carboxylic Acid [4-[4-(3-cyano-benzenesulfonyl)-piperazin-1-yl]-phenyl]-amide] |  | 223 |  |
| CS(=O)(=O)N1CCN(c2ccc(NC(=O)c3ccccc3-c3ccc(C(F)(F)F)cc3)cc2)CC1 [Example 83, 4′-Trifluoromethyl-biphenyl-2-carboxylic Acid [4-(4-methanesulfonyl-piperazin-1-yl)-phenyl]-amide] |  | 254 to 256 |  |
| N#Cc1cccc(CN2CCC(c3ccc(NC(=O)c4ccccc4-c4ccc(C(F)(F)F)cc4)cc3)CC2)c1 [Example 84, 4′-Trifluoromethyl-biphenyl-2-carboxylic Acid (4-[1-(3-cyano-benzyl)-piperidin-4-yl]-phenyl]-amide] |  | 124 to 126 |  |
| N#Cc1cccc(CN2CCN(c3ccc(NC(=O)c4ccccc4-n4cccc4)cc3)CC2)c1 [Example 85, N-{4-[4-(3-Cyano-benzyl)-piperazin-1-yl]-phenyl}-2-pyrrol-1-yl-benzamide] |  | 174 |  |
| N#Cc1cccc(CN2CCN(c3ccc(NC(=O)c4ccccc4-c4ccccn4)cc3)CC2)c1 [Example 86, N-{4-[4-(3-Cyano-benzyl)-piperazin-1-yl]-phenyl}-2-pyridin-2-yl-benzamide] |  | 169 to 171 |  |

From patent publication US6552022B1, “Benzamide derivatives and their use as ApoB-100 secretion inhibitors” (SmithKline Beecham Corporation, priority 1998, dated 2003)
